Measurements reported in patent US7625897B2, “Non-nucleoside reverse transcriptase inhibitors” (Roche Palo Alto LLC, priority 2005, dated 2009).
Read-outs that look alike come from different tables or passages of the source.

What was measured:
HIV-1 RT = HIV-1 RT (Human immunodeficiency virus type 1 group M subtype B, UniProt P03366); experiment: HIV Reverse Transcriptase Assay: Inhibitor IC50 determination; assay type: biochemical
Description: HIV Reverse Transcriptase Assay: Inhibitor IC50 determination
HIV-1 RT assay was carried out in 96-well Millipore MultiScreen MADVNOB50 plates using purified recombinant enzyme and a poly(rA)/oligo(dT)16 template-primer in a total volume of 50 μL. The assay constituents were 50 mM Tris/HCl, 50 mM NaCl, 1 mM EDTA, 6 mM MgCl2, 5 μM dTTP, 0.15 μCi [^3H] dTTP, 5 μg/ml poly (rA) pre annealed to 2.5 μg/ml oligo (dT)16 and a range of inhibitor concentrations in a final concentration of 10% DMSO. Reactions were initiated by adding 4 nM HIV-1 RT and after incubation at 37° C. for 30 min, they were stopped by the addition of 50 μl ice cold 20% TCA and allowed to precipitate at 4° C. for 30 min. The precipitates were collected by applying vacuum to the plate and sequentially washing with 3×200 μl of 10% TCA and 2×200 μl 70% ethanol. Finally, the plates were dried and radioactivity counted in a Packard TopCounter after the addition of 25 μl scintillation fluid per well. IC50's were calculated by plotting % inhibition versus log10 inhibitor concentrations.

HIV = experiment: Anti-viral Assay (method of Pauwels et al.); assay type: cell-based; settings: Human immunodeficiency virus 1; TABLE 3
Description: Anti-viral assays were carried out by the method described by R. E. Pauwels et al. J Virol. Methods 1988 20(4):309-322.

[1] = TABLE 3, read-out: RT inhibition IC50
[2] = TABLE I, purified recombinant enzyme, poly(rA)/oligo(dT)16 template-primer, read-out: HIV-RT IC50 RT

`C[C@H]1NC(Cc2ccc(Cl)c(Oc3cc(C#N)cc(C#N)c3)c2F)=NNC1=O` [Compound I-5, 5-[6-Chloro-2-fluoro-3-((R)-5-methyl-6-oxo-1,4,5,6-tetrahydro-[1,2,4]triazin-3-ylmethyl)-phenoxy]-isophthalonitrile] gave an IC50 (HIV-1 RT; [1]) of 32 nM, an IC50 (HIV-1 RT; [2]) of 31.8 nM and an EC50 (HIV) of 12.2 nM. For the same molecule, the melting point was 81.5 to 100 °C.

For `C[C@H]1NC(Cc2ccc(Cl)c(Oc3cc(Cl)cc(C#N)c3)c2F)=NNC1=O` [Compound I-15, 3-Chloro-5-[6-chloro-2-fluoro-3-((R)-5-methyl-6-oxo-1,4,5,6-tetrahydro-[1,2,4]triazin-3-ylmethyl)-phenoxy]-benzonitrile], the IC50 (HIV-1 RT; [1]) was 11 nM, the IC50 (HIV-1 RT; [2]) was 11.1 nM and the EC50 (HIV) was 8.3 nM. The melting point was 158.6 to 159.9 °C.
